The values that follow come from patent US4504481A, “Benzhydrylpiperazine derivatives, process for their preparation and pharmaceutical compositions containing them” (Richter Gedeon Vegyeszeti Gyar Rt., priority 1982, dated 1985).

For data set [1], the system named is hexobarbital oxidase. The experiment in a line: in vivo hexobarbital narcosis period (change of hexobarbital oxidase activity). Details: species or system Female Hann.-Wistar rats. The note with it: rat, hexobarbital sodium 60 mg./kg. i.v., ± S.E., n=10; for Hexobarbital narcosis period in % of control, 1 hour: 1 hour after administration, control 44.3 ± 5.67 min.; for Hexobarbital narcosis period in % of control, 24 hours: 24 hours after administration, control 47.0 ± 5.21 min. On the procedure:
The enzyme inhibiting activity of the new compounds was tested in vivo, by measuring the change of hexobarbital oxidase activity. Female Hann.-Wistarrats, each weighing 50 to 60 g. were treated orally with a single 40 mg./kg. dose of the test compound. One and 24 hours after the administration of the active ingredient, the animals were narcotized with a 60 mg./kg. i.v. dosage of hexobarbital sodium, and the time elapsed until complete wakening was measured (Noordhoek, J.: Eur. J. Pharmacol., 3, 242 (1968)). The data were recorded, and the mean values, the standard errors as well as the percentage increase with respect to the controls were calculated for each group. […] The hexobarbital concentration of the plasm, measured on the instant wakening, was the same for both the treated and the control animals, and thus the increase of narcosis period was not due to a certain central nervous interaction (Jori, A. et al.: Biochem. Pharmacol., 19, 2687 (1970)).
The control group was treated with placebo.

Data set [2] has as its system aniline hydroxylase. The experiment in a line: aniline hydroxylase activity of liver after oral treatment (p-amino-phenol formation). The note with it: rat liver, 2 hours after single 40 mg./kg. oral dose; ± S.E.; control 19.8 ± 0.53 nmoles/g. of liver/min. The format is in vivo, Female H.-Wistar rats. On the procedure:
(§1) The enzyme inhibiting activity of the compounds of the formula (I) was further tested by determining the activity of the polysubstrate liver monooxygenase enzyme system after treatment with placebo and the compounds according to the invention, respectively. Female H.-Wistar rats weighing 50 to 60 g. each were administered a single 40 mg./kg. oral dose of the test compounds. Two hours after treatment the animals were decapitated and the livers were removed. After rinsing with a physiological saline solution at 0° C., drying and weighing, the livers were homogenized in a 0.1 molar Tris-HCl buffer (pH=7.4), containing 1.15% of potassium chloride at 0° C., centrifuged at 9000 g for 20 minutes, and the supernatant (postmitochondrial fraction) was used for further investigations. The microsomal fraction was prepared following the method developed by Cinti D. L. et al.: Biochem. Pharmacol., 21, 3249 (1972). The activity of aniline hydroxylase was determined from the velocity of p-amino-phenol formation according to Chabra R. S. et al.: Toxicol. Appl. Pharmacol. 22, 50 (1972). The activity of the aminopyrine demethylase was measured from the amount of the formaldehyde formed, according to Gourlay G. K. et al: Biochem. Pharmacol., 27, 965 (1978). The control groups were treated with placebo. The results are shown in Table 2, expressed in percentage of the control.

In data set [3] the test system is aminopyrine demethylase. The experiment in a line: aminopyrine demethylase activity of liver after oral treatment (formaldehyde formed). The data set is classed as in vivo, Female H.-Wistar rats. The conditions noted are these: rat liver, 2 hours after single 40 mg./kg. oral dose; ± S.E.; control 260.7 ± 11.2 nmoles/g. of liver/min. On the procedure:
as §1

The nature of data set [4]: acute oral toxicity. The conditions noted are these: in vivo; rat, single 500 mg./kg. oral dose, 14 days observation, n=10; read-out: Perished animals. On the procedure:
The acute toxicity of the compounds having the formula (I) was tested on H-Wistar rats of both sexes, each weighing 160 to 180 g. The compounds were administered in a single 500 mg./kg. oral dose.

For data set [5] the following is noted: H. Ippen: Index Pharmacorum (1970); cited from earlier work.

Take `CCC(O)(c1ccc(OCCCN2CCN(C(c3ccccc3)c3ccccc3)CC2)cc1)c1ccccc1OC` (stereo not drawn) [A, α-ethyl-α-(2-methoxyphenyl)-4-[3-(4-benzhydryl-piperazin-1-yl)-propoxy]-benzylalcohol]: in data set [1] (single oral dose 40 mg./kg.), the “Hexobarbital narcosis period in % of control, 1 hour” value was 116 ± 6.7 % of control and the “Hexobarbital narcosis period in % of control, 24 hours” value is 172 ± 8.7 % of control. Further, the “Aniline hydroxylase activity, in percentage of the control” value in data set [2] is reported as 72 ± 5.8 % of control. Also, the “Aminopyrine demethylase activity, in percentage of the control” value in data set [3] is reported as 71 ± 8.1 % of control. Also, the mortality at 336 h in data set [4] amounted to 0%.
Consider `CCCC(C(=O)OCCN(CC)CC)(c1ccccc1)c1ccccc1` [Proadiphene, (2-diethylaminoethyl)-α,α-diphenyl valerate, reference compound], for which, in data set [1] (reference dose 100 mg./kg.), the “Hexobarbital narcosis period in % of control, 1 hour” value was 241 ± 9.6 % of control and the “Hexobarbital narcosis period in % of control, 24 hours” value is listed as 44 ± 5.7 % of control. For the same compound, in data set [4], the mortality at 336 h amounted to 90%. Besides, the anticonvulsive side effect result in data set [5] was “exerted an anticonvulsive side effect”.
